Test results reported in US12102648B2, “Orally-bioavailable nucleoside analogs” (priority 2021, dated 2024).
Where two headings read alike, the source gives them in different places.

Experiment: in vitro
Assay type: in vitro ADME
Settings: human
Procedure, shortened: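 Caco-2 monolayers cultured 19 days on inserts (TEER >600 […]); bidirectional A-to-B and B-to-A transport at 37° C over 90 min, samples quantified by LC/MS/MS. Papp, efflux ratio and recovery calculated; ER >2 flags potential efflux substrates.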

[1] = Caco-2 monolayer, apical to basolateral, 90-minute incubation, read-out: Papp, A-B
[2] = Caco-2 monolayer, basolateral to apical, 90-minute incubation, read-out: Papp, B-A
[3] = Caco-2 monolayer, ER>2 indicates potential efflux transporter substrate, read-out: ER (efflux ratio)

## CNc1nc(NC(=O)Cc2ccccc2)nc2c1ncn2[C@@H]1O[C@H](COC(C)=O)[C@@H](O)[C@@]1(C)F [Compound 334, ((2R,3R,4R,5R)-4-fluoro-3-hydroxy-4-methyl-5-(6-(methylamino)-2-(2-phenylacetamido)-9H-purin-9-yl)tetrahydrofuran-2-yl)methyl acetate]
[1]
  Papp A→B at 90 min: 7.6 nm/s
[2]
  Papp B→A at 90 min: 190 nm/s
[3]
  efflux ratio at 90 min: 25

## CCC(=O)O[C@H]1[C@@H](O)[C@](C#N)(c2ccc3c(NC(=O)OCOC(C)=O)ncnn23)O[C@@H]1COC(=O)[C@@H](N)C(C)C [Compound 364, ((2R,3S,4R,5R)-5-(4-(((acetoxymethoxy)carbonyl)amino)pyrrolo[2,1-f][1,2,4]triazin-7-yl)-5-cyano-4-hydroxy-3-(propionyloxy)tetrahydrofuran-2-yl)methyl L-valinate]
Caco-2
  Papp A→B at 90 min: 18 nm/s
  Papp B→A at 90 min: 20 nm/s
  efflux ratio at 90 min: 1.1

## C[C@@H](C(=O)OC[C@H]1O[C@@](C#N)(c2ccc3c(N)ncnn23)[C@H](O)[C@@H]1O)C1CCCCC1 [Compound 275, ((2R,3S,4R,5R)-5-(4-aminopyrrolo[2,1-f][1,2,4]triazin-7-yl)-5-cyano-3,4-dihydroxytetrahydrofuran-2-yl)methyl (R)-2-cyclohexylpropanoate]
Caco-2
  Papp A→B at 90 min: 110 nm/s
  Papp B→A at 90 min: 160 nm/s
  efflux ratio at 90 min: 1.6

## CC(C)CC(=O)N[C@H](C(=O)OC[C@H]1O[C@@](C#N)(c2ccc3c(N)ncnn23)[C@H](O)[C@@H]1O)C(C)C [Compound 255, [(2R,3S,4R,5R)-5-{4-aminopyrrolo[2,1-f][1,2,4]triazin-7-yl}-5-cyano-3,4-dihydroxyoxolan-2-yl]methyl (2S)-3-methyl-2-(3-methylbutanamido)butanoate]
Caco-2
  Papp A→B at 90 min: 21 nm/s
  Papp B→A at 90 min: 53 nm/s
  efflux ratio at 90 min: 2.5

## CC(C)(C)[C@H](N)C(=O)OC[C@H]1O[C@@](C#N)(c2ccc3c(N)ncnn23)[C@H](O)[C@@H]1OC(=O)CC1CCCCC1 [Compound 371, ((2R,3S,4R,5R)-5-(4-aminopyrrolo[2,1-f][1,2,4]triazin-7-yl)-5-cyano-3-(2-cyclohexylacetoxy)-4-hydroxytetrahydrofuran-2-yl)methyl (S)-2-amino-3,3-dimethylbutanoate]
Caco-2
  Papp A→B at 90 min: 150 nm/s
  Papp B→A at 90 min: 210 nm/s
  efflux ratio at 90 min: 1.3

## CNc1nc(N)nc2c1ncn2[C@@H]1O[C@H](COC(=O)C(C)C)[C@@H](OC(=O)C(C)C)[C@@]1(C)F [Compound 227, (2R,3R,4R,5R)-5-(2-amino-6-(methylamino)-9H-purin-9-yl)-4-fluoro-2-((isobutyryloxy)methyl)-4-methyltetrahydrofuran-3-yl isobutyrate]
Caco-2
  Papp A→B at 90 min: 85 nm/s
  Papp B→A at 90 min: 32 nm/s
  efflux ratio at 90 min: 0.4

## CC(C)C(=O)O[C@H]1[C@@H](O)[C@](C#N)(c2ccc3c(N)ncnn23)O[C@@H]1COC(=O)CC1CCCCC1 [Compound 30, (2R,3S,4R,5R)-5-(4-aminopyrrolo[2,1-f][1,2,4]triazin-7-yl)-5-cyano-2-((2-cyclohexylacetoxy)methyl)-4-hydroxytetrahydrofuran-3-yl isobutyrate]
Caco-2
  Papp A→B at 90 min: 73 nm/s
  Papp B→A at 90 min: 71 nm/s
  efflux ratio at 90 min: 1

## CC(C)(C)C(=O)OCOC(=O)Nc1ncnn2c([C@]3(C#N)O[C@H](COC(=O)[C@@H](N)Cc4ccccc4)[C@@H](OC(=O)CC4CCCCC4)[C@H]3O)ccc12 [Compound 374, (((7-((2R,3R,4S,5R)-5-(((L-phenylalanyl)oxy)methyl)-2-cyano-4-(2-cyclohexylacetoxy)-3-hydroxytetrahydrofuran-2-yl)pyrrolo[2,1-f][1,2,4]triazin-4-yl)carbamoyl)oxy)methyl pivalate]
Caco-2
  Papp A→B at 90 min: 0.04 nm/s
  Papp B→A at 90 min: 0.8 nm/s
  efflux ratio at 90 min: 19

## N#C[C@@]1(c2ccc3c(N)ncnn23)O[C@H](COC(=O)[C@@H](N)Cc2ccccc2)[C@@H](OC(=O)CC2CCCCC2)[C@H]1O [Compound 372, ((2R,3S,4R,5R)-5-(4-aminopyrrolo[2,1-f][1,2,4]triazin-7-yl)-5-cyano-3-(2-cyclohexylacetoxy)-4-hydroxytetrahydrofuran-2-yl)methyl L-phenylalaninate]
Caco-2
  Papp A→B at 90 min: 7.3 nm/s
  Papp B→A at 90 min: 8.3 nm/s
  efflux ratio at 90 min: 1.1

## CC(C)[C@H](N)C(=O)O[C@H]1[C@@H](OC(=O)[C@@H](N)C(C)C)[C@](C#N)(c2ccc3c(N)ncnn23)O[C@@H]1COC(=O)CC1CCCCC1 [Compound 356, (2R,3R,4R,5R)-2-(4-aminopyrrolo[2,1-f][1,2,4]triazin-7-yl)-2-cyano-5-((2-cyclohexylacetoxy)methyl)tetrahydrofuran-3,4-diyl (2S,2'S)-bis(2-amino-3-methylbutanoate)]
Caco-2
  Papp A→B at 90 min: 6 nm/s
  Papp B→A at 90 min: 36 nm/s
  efflux ratio at 90 min: 6

## CC(C)[C@H](N)C(=O)OC[C@H]1O[C@@](C#N)(c2ccc3c(N)ncnn23)[C@H](O)[C@@H]1OC(=O)Cc1ccccc1 [Compound 36, ((2R,3S,4R,5R)-5-(4-aminopyrrolo[2,1-f][1,2,4]triazin-7-yl)-5-cyano-4-hydroxy-3-(2-phenylacetoxy)tetrahydrofuran-2-yl)methyl L-valinate]
[1]
  Papp A→B at 90 min: 11 nm/s
[2]
  Papp B→A at 90 min: 103 nm/s
[3]
  efflux ratio at 90 min: 9.8

## N#C[C@@]1(c2ccc3c(NC(=O)c4ccccc4)ncnn23)O[C@H](CO)[C@@H](O)[C@H]1O [Compound 85, N-(7-((2R,3R,4S,5R)-2-cyano-3,4-dihydroxy-5-(hydroxymethyl)tetrahydrofuran-2-yl)pyrrolo[2,1-f][1,2,4]triazin-4-yl)benzamide]
Caco-2
  Papp A→B at 90 min: 3.7 nm/s
  Papp B→A at 90 min: 110 nm/s
  efflux ratio at 90 min: 31

## CCCCCOC(=O)Nc1ncnn2c([C@]3(C#N)O[C@H](COC(=O)CC)[C@@H](O)[C@H]3O)ccc12 [Compound 91, ((2R,3S,4R,5R)-5-cyano-3,4-dihydroxy-5-(4-(((pentyloxy)carbonyl)amino)pyrrolo[2,1-f][1,2,4]triazin-7-yl)tetrahydrofuran-2-yl)methyl propionate]
[1]
  Papp A→B at 90 min: 19 nm/s
[2]
  Papp B→A at 90 min: 41 nm/s
[3]
  efflux ratio at 90 min: 2.1

## CC(C)C(=O)OC[C@H]1O[C@@](C#N)(c2ccc3c(N)ncnn23)[C@H](O)[C@@H]1OC(=O)CC1CCCCC1 [Compound 58, ((2R,3S,4R,5R)-5-(4-aminopyrrolo[2,1-f][1,2,4]triazin-7-yl)-5-cyano-3-(2-cyclohexylacetoxy)-4-hydroxytetrahydrofuran-2-yl)methyl isobutyrate]
Caco-2
  Papp A→B at 90 min: 41 nm/s
  Papp B→A at 90 min: 21 nm/s
  efflux ratio at 90 min: 0.5

## CC(C)[C@H](N)C(=O)O[C@H]1[C@@H](OC(=O)[C@@H](N)C(C)C)[C@](C#N)(c2ccc3c(N)ncnn23)O[C@@H]1COC(=O)Cc1ccccc1 [Compound 351, (2R,3R,4R,5R)-2-(4-aminopyrrolo[2,1-f][1,2,4]triazin-7-yl)-2-cyano-5-((2-phenylacetoxy)methyl)tetrahydrofuran-3,4-diyl (2S,2'S)-bis(2-amino-3-methylbutanoate)]
[1]
  Papp A→B at 90 min: 1.7 nm/s
[2]
  Papp B→A at 90 min: 9.2 nm/s
[3]
  efflux ratio at 90 min: 5.5

## CCCCC(=O)Nc1ncnn2c([C@]3(C#N)O[C@H](COC(=O)CC(C)C)[C@@H](O)[C@H]3O)ccc12 [Compound 283, ((2R,3S,4R,5R)-5-cyano-3,4-dihydroxy-5-(4-pentanamidopyrrolo[2,1-f][1,2,4]triazin-7-yl)tetrahydrofuran-2-yl)methyl 3-methylbutanoate]
Caco-2
  Papp A→B at 90 min: 30 nm/s
  Papp B→A at 90 min: 10 nm/s
  efflux ratio at 90 min: 0.34

## N#C[C@@]1(c2ccc3c(N)ncnn23)O[C@H](COP(=O)(O)OCCCCCCCCCCCCCCCC(=O)O)[C@@H](O)[C@H]1O [Compound 8, 16-(((((2R,3S,4R,5R)-5-(4-aminopyrrolo[2,1-f][1,2,4]triazin-7-yl)-5-cyano-3,4-dihydroxytetrahydrofuran-2-yl)methoxy)(hydroxy)phosphoryl)oxy)hexadecanoic acid]
Caco-2
  Papp A→B at 90 min: 2 nm/s
  Papp B→A at 90 min: 5 nm/s
  efflux ratio at 90 min: 2.4

## CC(=O)O[C@H]1[C@@H](O)[C@](C#N)(c2ccc3c(N)ncnn23)O[C@@H]1COC(=O)CC1CCCCC1 [Compound 29, ((2R,3S,4R,5R)-3-acetoxy-5-(4-aminopyrrolo[2,1-f][1,2,4]triazin-7-yl)-5-cyano-4-hydroxytetrahydrofuran-2-yl)methyl 2-cyclohexylacetate]
Caco-2
  Papp A→B at 90 min: 20 nm/s
  Papp B→A at 90 min: 21 nm/s
  efflux ratio at 90 min: 1.1

## N#C[C@@]1(c2ccc3c(N)ncnn23)O[C@H](COC(=O)CC2CCS(=O)(=O)CC2)[C@@H](O)[C@H]1O [Compound 280, ((2R,3S,4R,5R)-5-(4-aminopyrrolo[2,1-f][1,2,4]triazin-7-yl)-5-cyano-3,4-dihydroxytetrahydrofuran-2-yl)methyl 2-(1,1-dioxidotetrahydro-2H-thiopyran-4-yl)acetate]
Caco-2
  Papp A→B at 90 min: 3.8 nm/s
  Papp B→A at 90 min: 9.1 nm/s
  efflux ratio at 90 min: 2.4

## N#C[C@@]1(c2ccc3c(N)ncnn23)O[C@H](COC(=O)CC2(N)CCCCC2)[C@@H](O)[C@H]1O [Compound 286, ((2R,3S,4R,5R)-5-(4-aminopyrrolo[2,1-f][1,2,4]triazin-7-yl)-5-cyano-3,4-dihydroxytetrahydrofuran-2-yl)methyl 2-(1-aminocyclohexyl)acetate]
Caco-2
  Papp A→B at 90 min: 0.1 nm/s
  Papp B→A at 90 min: 4 nm/s
  efflux ratio at 90 min: 67

## CC(C)C(=O)O[C@H]1[C@@H](O)[C@](C#N)(c2ccc3c(N)ncnn23)O[C@@H]1COC(=O)[C@@H](N)C(C)C [Compound 38, ((2R,3S,4R,5R)-5-(4-aminopyrrolo[2,1-f][1,2,4]triazin-7-yl)-5-cyano-4-hydroxy-3-(isobutyryloxy)tetrahydrofuran-2-yl)methyl L-valinate]
Caco-2
  Papp A→B at 90 min: 2.2 nm/s
  Papp B→A at 90 min: 33 nm/s
  efflux ratio at 90 min: 15

## CC(C)[C@H](N)C(=O)Nc1ncnn2c([C@]3(C#N)O[C@H](COC(=O)Cc4ccccc4)[C@@H](O)[C@H]3O)ccc12 [Compound 113]
[1]
  Papp A→B at 90 min: 0.1 nm/s
[2]
  Papp B→A at 90 min: 48 nm/s
[3]
  efflux ratio at 90 min: 320
